The source made the active and inactive calls. No cut-off for these calls is given here.
Legend:
Type in all cases: functional, organism-based
[1] = species: Mus musculus; assay: Determination of serum specificity with immunogen 2-MBSA in ELISA against the respective tachykinins of mice; +++ indicates Strong recognition
[2] = species: Mus musculus; assay: Determination of serum specificity with immunogen 3-MBSA in ELISA against the respective tachykinins of mice; - indicates Nondetectable interaction
[3] = species: Mus musculus; assay: Determination of serum specificity with immunogen 1-MBSA in ELISA against the respective tachykinins of mice; - indicates Nondetectable interaction

CSCC[C@H](NC(=O)[C@H](CC(C)C)NC(=O)CNC(=O)[C@@H](NC(=O)[C@H](Cc1ccccc1)NC(=O)[C@H](CO)NC(=O)[C@H](CC(=O)O)NC(=O)[C@@H](NC(=O)[C@H](CCCCN)NC(=O)[C@@H](N)Cc1c[nH]cn1)[C@@H](C)O)C(C)C)C(N)=O
Specificity [1]: Active | Specificity [2]: inactive | Specificity [3]: inactive

Source: ChEMBL document CHEMBL1124305, “Synthesis and immunological evaluation of N-terminal, noncrossreactive tachykinin antigens” (J Med Chem, 1988)
